Where “and” joins values, the source holds several entries; their conditions need not be identical. Equal entries are not always repeated.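 The compound was tested at five concentrations on cells cultured in 96-well plates, with a 48-hour exposure period. GI50 marks 50% less growth. TGI: concentration producing complete growth inhibition.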 Where a SMILES comes first, the peptide text is derived from it. The star is where a group is joined. Cbz = O=C(OCc1ccccc1)*; OBn = c1ccc(CO*)cc1
Assays:
Assay in all cases: growth of human tumour cells (NCI), 48 h
CAKI-1 renal = test system: CAKI-1 renal
KM12 colon = test system: KM12 colon
MDA-N = test system: MDA-N
MOLT-4 leukemia = test system: MOLT-4 leukemia
NCI-H226 lung = test system: NCI-H226 lung
OVCAR-4 ovarian = test system: OVCAR-4 ovarian
OVCAR-8 ovarian = test system: OVCAR-8 ovarian
SN12C renal = test system: SN12C renal
SW-620 colon = test system: SW-620 colon
MCF7 breast = test system: MCF7 breast

CCCNC(C#N)c1ccc(C(C#N)NCCC)cc1 (stereo not drawn)
TGI (CAKI-1 renal): > 100 µM | TGI (KM12 colon): > 100 µM | TGI (MDA-N): > 100 µM | TGI (MOLT-4 leukemia): > 100 µM | TGI (NCI-H226 lung): > 100 µM | TGI (OVCAR-4 ovarian): > 100 µM | TGI (OVCAR-8 ovarian): > 100 µM | TGI (SN12C renal): > 100 µM | TGI (SW-620 colon): > 100 µM

O=C1COc2ccc([N+](=O)[O-])cc2C(=O)C1
TGI (CAKI-1 renal): > 10 µM | TGI (KM12 colon): > 10 µM | TGI (MCF7 breast): > 10 µM | TGI (MDA-N): > 10 µM | TGI (MOLT-4 leukemia): > 10 µM | TGI (NCI-H226 lung): > 10 µM | TGI (OVCAR-4 ovarian): > 10 µM | TGI (OVCAR-8 ovarian): > 10 µM | TGI (SN12C renal): > 10 µM | TGI (SW-620 colon): > 10 µM

c1ccc2c(c1)nc(NC1CCCC1)c1[nH]c(C3CCCC3)nc12
TGI (KM12 colon): 21.3 µM | TGI (MOLT-4 leukemia): > 41.7 µM | TGI (NCI-H226 lung): 45.1 µM | TGI (OVCAR-4 ovarian): 30.1 µM | TGI (OVCAR-8 ovarian): 24.3 µM | TGI (SN12C renal): > 83.9 µM | TGI (SW-620 colon): 21.2 µM

c1ccc2c(c1)CCc1cc3cc4c(nc3nc1-2)-c1ccccc1CC4
TGI (KM12 colon): > 100 µM | TGI (MOLT-4 leukemia): > 100 µM | TGI (NCI-H226 lung): > 100 µM | TGI (OVCAR-8 ovarian): > 100 µM | TGI (SN12C renal): > 100 µM | TGI (SW-620 colon): > 100 µM

CC(=O)OC(OC(C)=O)n1cc(C=O)c2ccccc21
TGI (CAKI-1 renal): > 100 µM | TGI (MCF7 breast): > 100 µM | TGI (MOLT-4 leukemia): > 100 µM | TGI (NCI-H226 lung): > 100 µM | TGI (OVCAR-4 ovarian): > 100 µM | TGI (OVCAR-8 ovarian): > 100 µM | TGI (SN12C renal): > 100 µM | TGI (SW-620 colon): > 100 µM

O=C(c1ccccc1)c1ccc2nc(-c3c(Cl)c(Cl)c(Cl)c(Cl)c3C(=O)N/N=C/c3ccccc3)[nH]c2c1
TGI (CAKI-1 renal): > 100 µM | TGI (KM12 colon): > 100 µM | TGI (MCF7 breast): 41.9 µM | TGI (MDA-N): 93.7 µM | TGI (MOLT-4 leukemia): 54.1 µM | TGI (NCI-H226 lung): 79.8 µM | TGI (OVCAR-4 ovarian): 83.5 µM | TGI (OVCAR-8 ovarian): > 100 µM | TGI (SN12C renal): 60.8 µM | TGI (SW-620 colon): > 100 µM

CSc1c(C#N)c(=O)[nH]c2n[nH]c(C)c12
TGI (CAKI-1 renal): > 100 µM | TGI (KM12 colon): > 100 µM | TGI (MCF7 breast): > 100 µM | TGI (MDA-N): > 100 µM | TGI (MOLT-4 leukemia): > 100 µM | TGI (NCI-H226 lung): > 100 µM | TGI (OVCAR-4 ovarian): > 100 µM | TGI (OVCAR-8 ovarian): > 100 µM | TGI (SN12C renal): > 100 µM | TGI (SW-620 colon): > 100 µM

O=c1[nH]nc(-c2ccccc2)n1/N=C/c1c(O)ccc2ccccc12
TGI (KM12 colon): > 100 µM | TGI (MCF7 breast): > 100 µM | TGI (MDA-N): > 100 µM | TGI (MOLT-4 leukemia): > 100 µM | TGI (OVCAR-4 ovarian): 45.7 µM | TGI (OVCAR-8 ovarian): > 100 µM | TGI (SN12C renal): > 100 µM | TGI (SW-620 colon): > 100 µM

NCCNc1cccc2ccccc12
TGI (CAKI-1 renal): > 100 µM | TGI (KM12 colon): > 100 µM | TGI (NCI-H226 lung): > 100 µM | TGI (OVCAR-4 ovarian): > 100 µM | TGI (OVCAR-8 ovarian): > 100 µM | TGI (SN12C renal): > 100 µM | TGI (SW-620 colon): > 100 µM

CC(C)(C)C(=O)ON1N=NC2C3CC(OCc4ccccc4)(OCc4ccccc4)C(O3)C21 (stereo not drawn)
TGI (CAKI-1 renal): > 100 µM | TGI (KM12 colon): 55.4 µM | TGI (MOLT-4 leukemia): 32.2 µM | TGI (NCI-H226 lung): 40 µM | TGI (OVCAR-4 ovarian): 82.4 µM | TGI (SN12C renal): 39.3 µM | TGI (SW-620 colon): 50.7 µM

Cc1cccc(C2=NC(C)(C)C(C)(C)N=C2c2cccc(C)n2)n1
TGI (CAKI-1 renal): > 100 µM | TGI (KM12 colon): > 100 µM | TGI (NCI-H226 lung): > 100 µM | TGI (OVCAR-4 ovarian): > 100 µM | TGI (OVCAR-8 ovarian): > 100 µM | TGI (SW-620 colon): > 100 µM

COC(=O)/C=C/c1cc(O)c2c(c1)[C@H](C(=O)OC)[C@@H](c1ccc(O)c(O)c1)O2
TGI (CAKI-1 renal): > 100 µM | TGI (KM12 colon): 14.5 µM | TGI (MCF7 breast): > 100 µM | TGI (MOLT-4 leukemia): > 45.7 µM | TGI (NCI-H226 lung): > 22.7 µM | TGI (OVCAR-4 ovarian): > 100 µM | TGI (OVCAR-8 ovarian): 4.37 µM | TGI (SN12C renal): > 74.1 µM | TGI (SW-620 colon): > 100 µM

COC(=O)C(Cc1ccc(O)cc1)NC(=O)C(CC(=O)OCc1ccccc1)NC(=O)OCc1ccccc1 (stereo not drawn) (Cbz-Asp(OBn)-Tyr-OMe; configuration not given here)
TGI (KM12 colon): 39.5 µM | TGI (MDA-N): 35.7 µM | TGI (MOLT-4 leukemia): 61.5 µM | TGI (NCI-H226 lung): 43.2 µM | TGI (OVCAR-8 ovarian): 35.6 µM | TGI (SN12C renal): 39.3 µM | TGI (SW-620 colon): 44.8 µM

Cc1cccc(NC(=O)C(=O)C(C(=O)c2ccccc2F)C2OC(=O)c3ccccc32)c1Cl (stereo not drawn)
TGI (CAKI-1 renal): > 100 µM | TGI (KM12 colon): 94.5 µM | TGI (MOLT-4 leukemia): > 100 µM | TGI (NCI-H226 lung): 62.3 µM | TGI (OVCAR-4 ovarian): > 100 µM | TGI (OVCAR-8 ovarian): 50.6 µM | TGI (SN12C renal): > 100 µM | TGI (SW-620 colon): > 100 µM

CCSC1=C(C)N(C=NC(C)(C)C)CC1
TGI (CAKI-1 renal): > 100 µM | TGI (KM12 colon): > 100 µM | TGI (MOLT-4 leukemia): > 100 µM | TGI (NCI-H226 lung): > 100 µM | TGI (OVCAR-4 ovarian): > 100 µM | TGI (OVCAR-8 ovarian): > 100 µM | TGI (SN12C renal): > 100 µM | TGI (SW-620 colon): 73.8 µM

O=[Se](=O)c1ccccc1.O=[Se](=O)c1ccccc1.[Cu]
GI50 (CAKI-1 renal): 22.8 µM | TGI (CAKI-1 renal): 38.9 µM | GI50 (KM12 colon): 9.38 µM | TGI (KM12 colon): 24.6 µM | GI50 (MCF7 breast): 24.1 µM | TGI (MCF7 breast): 62 µM | GI50 (MOLT-4 leukemia): 12 µM | TGI (MOLT-4 leukemia): 65.8 µM | GI50 (NCI-H226 lung): 21.7 µM | TGI (NCI-H226 lung): 39.6 µM | GI50 (OVCAR-4 ovarian): 18.7 µM | TGI (OVCAR-4 ovarian): 34.5 µM | GI50 (OVCAR-8 ovarian): 15.9 µM | TGI (OVCAR-8 ovarian): 30.2 µM | GI50 (SN12C renal): 15.8 µM | TGI (SN12C renal): 29.5 µM | GI50 (SW-620 colon): 17.5 µM | TGI (SW-620 colon): 33.8 µM

COC(=O)c1cc(C#N)[nH]c1-c1ccc(C)s1
TGI (CAKI-1 renal): > 100 µM | TGI (KM12 colon): > 100 µM | TGI (MDA-N): > 100 µM | TGI (MOLT-4 leukemia): > 100 µM | TGI (NCI-H226 lung): > 100 µM | TGI (OVCAR-4 ovarian): > 100 µM | TGI (OVCAR-8 ovarian): > 100 µM | TGI (SN12C renal): > 100 µM | TGI (SW-620 colon): > 100 µM

NC(=O)C#CC(N)=O
GI50 (CAKI-1 renal): 2.81 µM and 12.5 µM and 18.2 µM | TGI (CAKI-1 renal): 10.3 µM and 24.2 µM and 33.8 µM | GI50 (KM12 colon): 38.9 µM and 54.1 µM and > 100 µM | TGI (KM12 colon): 164 µM and 161 µM and > 100 µM | TGI (MCF7 breast): 48.5 µM and 56.8 µM | GI50 (MOLT-4 leukemia): 3.31 µM and 14.2 µM | TGI (MOLT-4 leukemia): 18.6 µM and 37.5 µM | GI50 (NCI-H226 lung): 73.6 µM | TGI (NCI-H226 lung): 169 µM and > 100 µM | GI50 (OVCAR-4 ovarian): 30.7 µM and 21.6 µM and > 100 µM | TGI (OVCAR-4 ovarian): 87.5 µM and 55 µM and > 100 µM | GI50 (OVCAR-8 ovarian): 8.34 µM and 19.2 µM | TGI (OVCAR-8 ovarian): 23.4 µM and 47.5 µM | GI50 (SN12C renal): 14.3 µM and 36.4 µM | TGI (SN12C renal): 26.6 µM and > 100 µM | GI50 (SW-620 colon): 5.74 µM and 3.1 µM and 15.2 µM | TGI (SW-620 colon): 18.2 µM and 12.1 µM and 31.1 µM

CCOC(=O)CNC(=O)C(C)NC(=O)C(NC(=O)CC(c1ncc[nH]1)c1ncc[nH]1)C(C)CC (stereo not drawn)
TGI (CAKI-1 renal): > 100 µM | TGI (KM12 colon): > 100 µM | TGI (MCF7 breast): > 100 µM | TGI (MDA-N): > 100 µM | TGI (MOLT-4 leukemia): > 100 µM | TGI (OVCAR-4 ovarian): > 100 µM | TGI (OVCAR-8 ovarian): > 100 µM | TGI (SN12C renal): > 100 µM | TGI (SW-620 colon): > 100 µM

O=[N+]([O-])c1ccc(N=Nc2c(O)c(S(=O)(=O)O)cc3cc(S(=O)(=O)O)ccc23)cc1
TGI (CAKI-1 renal): > 100 µM | TGI (MCF7 breast): > 100 µM | TGI (MDA-N): > 100 µM | TGI (MOLT-4 leukemia): > 100 µM | TGI (NCI-H226 lung): > 100 µM | TGI (OVCAR-4 ovarian): > 100 µM | TGI (OVCAR-8 ovarian): > 100 µM | TGI (SN12C renal): > 100 µM | TGI (SW-620 colon): > 100 µM

O=C1Nc2cc([N+](=O)[O-])ccc2NC1/C(=N\Nc1ccccc1)C(O)c1cccc([N+](=O)[O-])c1 (stereo not drawn)
TGI (KM12 colon): > 100 µM | TGI (MOLT-4 leukemia): > 100 µM | TGI (NCI-H226 lung): > 100 µM | TGI (OVCAR-4 ovarian): > 100 µM | TGI (OVCAR-8 ovarian): > 100 µM | TGI (SN12C renal): > 100 µM | TGI (SW-620 colon): > 100 µM

N#C[S-].[Nd+3].c1ccc(-c2ccccn2)nc1.c1ccc(-c2ccccn2)nc1.c1ccc(-c2ccccn2)nc1
GI50 (CAKI-1 renal): 5.9 µM | TGI (CAKI-1 renal): > 100 µM | GI50 (KM12 colon): 5.62 µM | TGI (KM12 colon): > 100 µM | GI50 (NCI-H226 lung): 2.89 µM | TGI (NCI-H226 lung): 7.52 µM | GI50 (OVCAR-4 ovarian): 49.8 µM | TGI (OVCAR-4 ovarian): > 100 µM | GI50 (OVCAR-8 ovarian): 4.8 µM | TGI (OVCAR-8 ovarian): > 100 µM | GI50 (SN12C renal): 5.82 µM | TGI (SN12C renal): > 100 µM | GI50 (SW-620 colon): 5.93 µM | TGI (SW-620 colon): > 100 µM
